Earlier results on 1 molecule are cited in paper PMC6044787 (ACS Omega, 2017).

One may read the IC50 as the concentration that gives 50% inhibition.

The test system of this data set is AChE.

For `C[n+]1ccc2c(c1)[nH]c1ccc(Cl)cc12` [Compound 8, nostocarboline], the IC50 was 5.3 µM.
